Results reported in patent US10344060B2 (priority 2013, dated 2019).

Target: hNav1.7 (Homo sapiens, UniProt Q15858)
Assay: cell-based
Assay type: cell-based
Conditions: for Nav1.4/Nav1.7 / Nav1.5/Nav1.7: ratio of PX tonic IC50 values, Table 11; for IC50: Table 12, PatchXpress, tonic block, read-out: PX hNav1.7 Tonic IC50

hNav1.7, sequence (Q15858 whole entry): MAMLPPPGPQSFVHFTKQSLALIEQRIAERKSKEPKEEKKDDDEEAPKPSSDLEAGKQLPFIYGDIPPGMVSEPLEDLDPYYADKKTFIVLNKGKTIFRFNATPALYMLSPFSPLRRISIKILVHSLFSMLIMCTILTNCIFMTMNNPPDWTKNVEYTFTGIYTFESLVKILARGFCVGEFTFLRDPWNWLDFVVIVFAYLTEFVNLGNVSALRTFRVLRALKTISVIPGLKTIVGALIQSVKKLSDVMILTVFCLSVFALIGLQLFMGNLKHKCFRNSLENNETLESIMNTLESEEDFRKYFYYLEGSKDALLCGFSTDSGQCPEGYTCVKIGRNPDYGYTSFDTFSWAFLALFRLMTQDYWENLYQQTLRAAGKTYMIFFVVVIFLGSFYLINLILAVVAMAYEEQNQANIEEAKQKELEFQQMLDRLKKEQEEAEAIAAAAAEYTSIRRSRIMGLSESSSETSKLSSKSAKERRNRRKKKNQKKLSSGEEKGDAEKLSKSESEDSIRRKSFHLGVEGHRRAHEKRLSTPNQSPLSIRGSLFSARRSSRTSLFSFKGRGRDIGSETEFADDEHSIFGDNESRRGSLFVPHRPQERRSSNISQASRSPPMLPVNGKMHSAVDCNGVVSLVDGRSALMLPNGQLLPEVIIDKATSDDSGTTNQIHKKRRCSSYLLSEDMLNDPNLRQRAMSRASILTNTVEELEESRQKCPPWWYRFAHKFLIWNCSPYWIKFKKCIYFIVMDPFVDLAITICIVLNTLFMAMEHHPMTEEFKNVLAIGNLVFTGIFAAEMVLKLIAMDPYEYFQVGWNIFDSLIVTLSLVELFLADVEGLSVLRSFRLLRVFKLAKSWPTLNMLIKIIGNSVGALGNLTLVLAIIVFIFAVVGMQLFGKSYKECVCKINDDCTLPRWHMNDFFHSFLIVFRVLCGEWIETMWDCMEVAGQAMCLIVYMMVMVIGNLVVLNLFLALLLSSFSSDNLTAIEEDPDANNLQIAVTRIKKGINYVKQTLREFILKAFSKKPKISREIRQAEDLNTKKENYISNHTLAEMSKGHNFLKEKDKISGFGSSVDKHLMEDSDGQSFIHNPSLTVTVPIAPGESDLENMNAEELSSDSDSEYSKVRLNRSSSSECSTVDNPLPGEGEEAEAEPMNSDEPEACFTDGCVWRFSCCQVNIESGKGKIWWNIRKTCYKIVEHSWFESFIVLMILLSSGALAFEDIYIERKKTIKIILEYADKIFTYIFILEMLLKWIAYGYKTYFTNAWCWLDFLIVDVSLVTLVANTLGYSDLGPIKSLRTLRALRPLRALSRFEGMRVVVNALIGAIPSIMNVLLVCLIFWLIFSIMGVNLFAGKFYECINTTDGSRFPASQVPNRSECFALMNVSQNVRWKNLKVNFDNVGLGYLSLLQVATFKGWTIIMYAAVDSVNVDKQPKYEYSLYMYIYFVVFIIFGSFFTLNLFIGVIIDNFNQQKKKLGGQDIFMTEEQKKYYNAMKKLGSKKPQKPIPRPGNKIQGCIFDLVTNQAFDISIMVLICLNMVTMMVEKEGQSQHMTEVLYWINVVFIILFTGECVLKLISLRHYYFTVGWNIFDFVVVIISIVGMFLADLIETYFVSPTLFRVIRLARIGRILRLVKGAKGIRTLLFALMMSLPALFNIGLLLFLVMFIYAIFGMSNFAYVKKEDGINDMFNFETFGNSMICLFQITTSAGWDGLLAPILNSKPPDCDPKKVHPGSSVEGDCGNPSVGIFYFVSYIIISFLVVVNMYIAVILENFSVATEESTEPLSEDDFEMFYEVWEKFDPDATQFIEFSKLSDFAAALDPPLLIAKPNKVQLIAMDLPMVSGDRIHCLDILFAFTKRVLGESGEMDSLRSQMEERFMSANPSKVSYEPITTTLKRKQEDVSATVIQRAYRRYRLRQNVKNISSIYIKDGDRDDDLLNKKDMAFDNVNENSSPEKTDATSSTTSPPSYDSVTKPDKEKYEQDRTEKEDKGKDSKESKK

Row | SMILES | Nav1.4/Nav1.7 | Nav1.5/Nav1.7 | IC50 [nM]
1 | CC[C@H](C)[C@H](NC(=O)[C@H](Cc1ccc(O)cc1)NC(=O)[C@H](CCCCN)NC(=O)[C@H](CCCNC(=N)N)NC(=O)[C@@H]1CSSC[C@@H]2NC(=O)[C@H](C)NC(=O)[C@H](CCCNC(=N)N)NC(=O)[C@H](CCCCN)NC(=O)[C@H](CO)NC(=O)[C@H](CC(=O)O)NC(=O)[C@@H]3CSSC[C@H](NC(=O)[C@H](CCC(=O)O)NC(=O)[C@H](CC(C)C)NC(=O)CNC(=O)[C@H](CCC(=O)O)NC(=O)[C@H](CSSC[C@H](NC(=O)[C@@H](N)Cc4ccc(O)cc4)C(=O)N[C@@H](CCC(N)=O)C(=O)N[C@@H](CCCCN)C(=O)N[C@@H](Cc4c[nH]c5ccccc45)C(=O)N[C@@H](CCSC)C(=O)N[C@@H](Cc4c[nH]c5ccccc45)C(=O)N[C@@H]([C@@H](C)O)C(=O)N3)NC2=O)C(=O)N[C@@H](CCCCN)C(=O)N[C@@H](CC(C)C)C(=O)N[C@@H](Cc2cccc3ccccc23)C(=O)N1)C(N)=O [compound 218] | 434 | 833 | 
2 | C#CC[C@H](N)C(=O)N[C@@H](Cc1ccc(O)cc1)C(=O)N[C@H]1CSSC[C@@H]2NC(=O)[C@@H]3CSSC[C@@H](C(=O)N[C@@H](CCCNC(=N)N)C(=O)N[C@@H](CCCCN)C(=O)N[C@@H](CCC(=O)O)C(=O)N[C@H](C(N)=O)[C@@H](C)CC)NC(=O)[C@H](Cc4c[nH]c5ccccc45)NC(=O)[C@H](CC(C)C)NC(=O)[C@H](CCCCN)NC(=O)[C@H](CSSC[C@H](NC(=O)[C@H]([C@@H](C)O)NC(=O)[C@H](Cc4c[nH]c5ccc(Br)cc45)NC(=O)[C@H](CCCC)NC(=O)[C@H](Cc4c[nH]c5ccccc45)NC(=O)[C@H](CCCCN)NC(=O)[C@H](CCC(N)=O)NC1=O)C(=O)N[C@@H](CC(=O)O)C(=O)N[C@@H](CO)C(=O)N[C@@H](CCCCN)C(=O)N[C@@H](CCCNC(=N)N)C(=O)N[C@@H](C)C(=O)N3)NC(=O)[C@H](CCCNC(=N)N)NC(=O)[C@H](CC(C)C)NC(=O)CNC(=O)[C@H](CCC(=O)O)NC2=O [compound 850] |  |  | 540
3 | CCCC[C@@H]1NC(=O)[C@H](Cc2c[nH]c3ccccc23)NC(=O)[C@H](CCCCN)NC(=O)[C@H](CCC(N)=O)NC(=O)[C@@H](NC(=O)[C@H](Cc2ccc(O)cc2)NC(=O)[C@H](N)CC(C)C)CSSC[C@@H]2NC(=O)[C@@H]3CSSC[C@@H](C(=O)N[C@@H](CCCNC(=N)N)C(=O)N[C@@H](CCCCN)C(=O)N[C@H](C(=O)N[C@H](C(N)=O)[C@@H](C)CC)[C@@H](C)CC)NC(=O)[C@H](Cc4c[nH]c5ccccc45)NC(=O)[C@H](CC(C)C)NC(=O)[C@H](CCCCN)NC(=O)[C@H](CSSC[C@H](NC(=O)[C@H]([C@@H](C)O)NC(=O)[C@H](Cc4c[nH]c5ccccc45)NC1=O)C(=O)N[C@@H](CC(=O)O)C(=O)N[C@@H](CO)C(=O)N[C@@H](CCCCN)C(=O)N[C@@H](CCCNC(=N)N)C(=O)N[C@@H](C)C(=O)N3)NC(=O)[C@H](CCCNC(=N)N)NC(=O)[C@H](CC(C)C)NC(=O)CNC(=O)[C@H](CCC(=O)O)NC2=O [compound 373] | 190 | 2704 | 
4 | C#CC[C@H](N)C(=O)N[C@@H](Cc1ccc(O)cc1)C(=O)N[C@H]1CSSC[C@@H]2NC(=O)[C@@H]3CSSC[C@@H](C(=O)N[C@@H](CCCNC(=N)N)C(=O)N[C@@H](CCCCN)C(=O)N[C@@H](CCC(=O)O)C(=O)N[C@H](C(N)=O)[C@@H](C)CC)NC(=O)[C@H](Cc4c[nH]c5ccccc45)NC(=O)[C@H](CC(C)C)NC(=O)[C@H](CCCCN)NC(=O)[C@H](CSSC[C@H](NC(=O)[C@H]([C@@H](C)O)NC(=O)[C@H](Cc4ccc5ccccc5c4)NC(=O)[C@H](CCCC)NC(=O)[C@H](Cc4c[nH]c5ccccc45)NC(=O)[C@H](CCCCN)NC(=O)[C@H](CCC(N)=O)NC1=O)C(=O)N[C@@H](CC(=O)O)C(=O)N[C@@H](CO)C(=O)N[C@@H](CCCCN)C(=O)N[C@@H](CCCNC(=N)N)C(=O)N[C@@H](C)C(=O)N3)NC(=O)[C@H](CCCNC(=N)N)NC(=O)[C@H](CC(C)C)NC(=O)CNC(=O)[C@H](CCC(=O)O)NC2=O [compound 847] |  |  | 470
5 | C#CC[C@@H]1NC(=O)[C@@H]2CSSC[C@H](NC(=O)[C@H](Cc3ccc(O)cc3)NC(=O)[C@@H](N)CC#N)C(=O)N[C@@H](CCC(N)=O)C(=O)N[C@@H](CCCCN)C(=O)N[C@@H](Cc3c[nH]c4ccccc34)C(=O)N[C@@H](CCCC)C(=O)N[C@@H](Cc3c[nH]c4ccccc34)C(=O)N[C@@H]([C@@H](C)O)C(=O)N[C@H]3CSSC[C@H](NC(=O)[C@H](CCCNC(=N)N)NC(=O)[C@H](CC(C)C)NC(=O)CNC1=O)C(=O)N[C@@H](CCCCN)C(=O)N[C@@H](CC(C)C)C(=O)N[C@@H](Cc1c[nH]c4cc(Br)ccc14)C(=O)N[C@H](C(=O)N[C@@H](CCCNC(=N)N)C(=O)N[C@@H](CCCCN)C(=O)N[C@@H](CCC(=O)O)C(=O)N[C@H](C(N)=O)[C@@H](C)CC)CSSC[C@H](NC(=O)[C@H](C)NC(=O)[C@H](CCCNC(=N)N)NC(=O)[C@H](CCCCN)NC(=O)[C@H](CO)NC(=O)[C@H](CC(=O)O)NC3=O)C(=O)N2 [compound 873] |  |  | 8.47
6 | C#CC[C@@H]1NC(=O)[C@@H]2CSSC[C@H](NC(=O)[C@@H](N)CC#N)C(=O)N[C@@H](CCC(N)=O)C(=O)N[C@@H](CCCCN)C(=O)N[C@@H](Cc3c[nH]c4ccccc34)C(=O)N[C@@H](CCCC)C(=O)N[C@@H](Cc3c[nH]c4ccccc34)C(=O)N[C@@H]([C@@H](C)O)C(=O)N[C@H]3CSSC[C@H](NC(=O)[C@H](CCCNC(=N)N)NC(=O)[C@H](CC(C)C)NC(=O)CNC1=O)C(=O)N[C@@H](CCC(N)=O)C(=O)N[C@@H](CC(C)C)C(=O)N[C@@H](Cc1c[nH]c4ccccc14)C(=O)N[C@H](C(=O)N[C@@H](CCCNC(=N)N)C(=O)N[C@@H](CCCCN)C(=O)N[C@@H](CCC(=O)O)C(=O)N[C@H](C(N)=O)[C@@H](C)CC)CSSC[C@H](NC(=O)[C@H](C)NC(=O)[C@H](CCCNC(=N)N)NC(=O)[C@H](CCCCN)NC(=O)[C@H](CO)NC(=O)[C@H](CC(=O)O)NC3=O)C(=O)N2 [compound 1680] |  |  | 47.6
7 | C#CC[C@@H]1NC(=O)[C@@H]2CSSC[C@H](NC(=O)[C@H](CCC(=O)O)NC(=O)[C@@H](N)CC#N)C(=O)N[C@@H](CCC(N)=O)C(=O)N[C@@H](CCCCN)C(=O)N[C@@H](Cc3c[nH]c4ccccc34)C(=O)N[C@@H](CCCC)C(=O)N[C@@H](Cc3c[nH]c4ccccc34)C(=O)N[C@@H]([C@@H](C)O)C(=O)N[C@H]3CSSC[C@H](NC(=O)[C@H](CCCNC(=N)N)NC(=O)[C@H](CC(C)C)NC(=O)CNC1=O)C(=O)N[C@@H](CCCCN)C(=O)N[C@@H](CC(C)C)C(=O)N[C@@H](Cc1c[nH]c4ccccc14)C(=O)N[C@H](C(=O)N[C@@H](CCCNC(=N)N)C(=O)N[C@@H](CCCCN)C(=O)N[C@@H](CCC(=O)O)C(=O)N[C@H](C(N)=O)[C@@H](C)CC)CSSC[C@H](NC(=O)[C@H](CCC(=O)O)NC(=O)[C@H](CCCNC(=N)N)NC(=O)[C@H](CCC(=O)O)NC(=O)[C@H](CCC(=O)O)NC(=O)[C@H](CC(=O)O)NC3=O)C(=O)N2 [compound 757] |  |  | > 1000
8 | CCCC[C@@H]1NC(=O)[C@H](Cc2c[nH]c3ccccc23)NC(=O)[C@H](CCCCN)NC(=O)[C@H](CCC(N)=O)NC(=O)[C@@H](NC(=O)[C@H](Cc2ccc(O)cc2)NC(=O)[C@H](CCC)NC(=O)[C@@H](N)CC(C)C)CSSC[C@@H]2NC(=O)[C@@H]3CSSC[C@@H](C(=O)N[C@@H](CCCNC(=N)N)C(=O)N[C@@H](CCCCN)C(=O)N[C@@H](CCC(=O)O)C(=O)N[C@H](C(N)=O)[C@@H](C)CC)NC(=O)[C@H](Cc4c[nH]c5ccccc45)NC(=O)[C@H](CC(C)C)NC(=O)[C@H](CCCCN)NC(=O)[C@H](CSSC[C@H](NC(=O)[C@H]([C@@H](C)O)NC(=O)[C@H](Cc4c[nH]c5ccccc45)NC1=O)C(=O)N[C@@H](CC(=O)O)C(=O)N[C@@H](CO)C(=O)N[C@@H](CCCCN)C(=O)N[C@@H](CCCNC(=N)N)C(=O)N[C@@H](CCCCNC(=O)CCOCCOCCOCCOCCOCCOCCOCCOCCOCCOCCOCCOCCN)C(=O)N3)NC(=O)[C@H](CCCNC(=N)N)NC(=O)[C@H](CC(C)C)NC(=O)CNC(=O)[C@H](CCC(=O)O)NC2=O [compound 470] | 34 | 372 | 
9 | C#CC[C@H](N)C(=O)N[C@@H](Cc1ccc(O)cc1)C(=O)N[C@H]1CSSC[C@@H]2NC(=O)[C@@H]3CSSC[C@@H](C(=O)N[C@@H](CCCNC(=N)N)C(=O)N[C@@H](CCCCN)C(=O)N[C@@H](CCC(=O)O)C(=O)N[C@H](C(N)=O)[C@@H](C)CC)NC(=O)[C@H](Cc4c[nH]c5ccccc45)NC(=O)[C@H](CC(C)C)NC(=O)[C@H](CCCCN)NC(=O)[C@H](CSSC[C@H](NC(=O)[C@H]([C@@H](C)O)NC(=O)[C@H](Cc4c[nH]c5ccccc45)NC(=O)[C@H](CCCC)NC(=O)[C@H](Cc4c[nH]c5ccccc45)NC(=O)[C@H](CCCCN)NC(=O)[C@H](CCC(N)=O)NC1=O)C(=O)N[C@@H](CC(=O)O)C(=O)N[C@@H](CO)C(=O)N[C@@H](CCCCN)C(=O)N[C@@H](CCCNC(=N)N)C(=O)N[C@@H](C)C(=O)N3)NC(=O)[C@H](CCCNC(=N)N)NC(=O)[C@H](CC(C)C)NC(=O)[C@H](CCC(=O)O)NC(=O)[C@H](CCC(=O)O)NC2=O [compound 719] |  |  | > 1000
10 | CCCC[C@@H]1NC(=O)[C@H](Cc2c[nH]c3ccccc23)NC(=O)[C@H](CCCCN)NC(=O)[C@H](CCC(N)=O)NC(=O)[C@@H](NC(=O)[C@H](Cc2ccc(O)cc2)NC(=O)[C@H](CCC)NC(=O)[C@H](N)CC(C)C)CSSC[C@@H]2NC(=O)[C@@H]3CSSC[C@@H](C(=O)N[C@@H](CCCNC(=N)N)C(=O)N[C@@H](CCCCN)C(=O)N[C@@H](CCC(=O)O)C(=O)N[C@H](C(N)=O)[C@@H](C)CC)NC(=O)[C@H](Cc4c[nH]c5ccccc45)NC(=O)[C@H](CC(C)C)NC(=O)[C@H](CCCCN)NC(=O)[C@H](CSSC[C@H](NC(=O)[C@H]([C@@H](C)O)NC(=O)[C@H](Cc4c[nH]c5ccccc45)NC1=O)C(=O)N[C@@H](CC(=O)O)C(=O)N[C@@H](CO)C(=O)N[C@@H](CCCCN)C(=O)N[C@@H](CCCNC(=N)N)C(=O)N[C@@H](CCCCNC(=O)CCOCCOCCOCCOCCOCCOCCOCCOCCOCCOCCOCCOCCN)C(=O)N3)NC(=O)[C@H](CCCNC(=N)N)NC(=O)[C@H](CC(C)C)NC(=O)CNC(=O)[C@H](CCC(=O)O)NC2=O [compound 472] | 42 | 349 | 
